From EP1501797B1, “3-(SUBSTITUTED AMINO)-1H-INDOLE-2-CARBOXYLIC ACID ESTER AND 3-(SUBSTITUTED AMINO)-BENZO[B]THIOPHENE-2-CARBOXYLIC ACID ESTER DERIVATIVES AS INTERLEUKIN-4 GENE EXPRESSION INHIBITORS” (Aventis Pharmaceuticals Inc., priority 2002, dated 2003) come the findings set out here.

SMILES strings stand for the structures.

For one assay, the system named is IL-13. The experiment in a line: Human primary Th2 cells, anti-CD3/anti-CD28 activated, IL-13 ELISA. It counts as cell-based. How it is done: Briefly, CD4^+CD45RA^+ T cells, isolated from donor peripheral blood mononuclear cells of healthy donors, are educated in the presence of anti-CD3/CD28 antibodies and various growth factors to obtain either a Thl-like or Th2-like phenotypes as determined by the known cytokine profiles of these two cell types.
Peripheral blood mononuclear cells (PBMC) are prepared from human blood by Ficoll-Hypacque (Pharmacia). The cells are washed two times in Hanks balanced salt solution (HBSS) and counted.
Naive T cells (CD4^+/CD45RA ) are prepared by negative selection method using following antibodies and Dynabeads: anti-CD8, anti-HLA-DR, (where HLA means human leucocyte antigen) anti-CD14, anti-CD16, anti-CD19, anti-CD45RO antibodies (all from R&D Systems, 1-2 µg/ml) are added to the cells, and the cells are kept on ice for 30 min. The cells are washed two times in HBSS, and goat anti- mouse Ig-beads, (bead:target ratio, 5:1) are added. The cells and beads are slowly rotated at 4°C for 20 min. (following the protocol supplied from Dynal). The supernatant is removed and fresh goat anti-mouse Ig-beads are added to the supernatant, which is slowly rotated at 4°C for 20 min. The cells are counted and phenotypically characterized by flow cytometric analysis.
CD4^+/CD45RA^+ cells at a density of 10^6/ml in RPMI, is prepared and added to RPMI medium containing 10% Hyclone serum/ glutamine and 1-2 µg/ml anti-CD28 Ab. The cells are split in two aliquots. For Th1 cells: anti-IL-4 Ab (1-2 µg/ml), IFN-γ (1 µg/ml, or 5000 units/ml) are added to the wells. For Th2 cells: IL-4 (100-200 ng/ml), anti-IFN-γ neutralizing Ab (1-2 µg/ml), anti-IL-12 neutralizing Ab (1-2 µg/ml) are added into the wells. […] The cells are transferred to fresh wells and grown in 200 units/ml IL-2 for 2 weeks by feeding them every other day with IL-2 containing medium and splitting the cultures 1:2 or 1:3 as needed. The degree of polarization is determined by intracellular staining of cells with anti-IFN-γ and anti-IL-4 antibodies from Pharmingen, and using flow cytometry from Becton Dickinson (BD), according to manufacturers description. The cells are stimulated with PHA and alloantigens at day 14 and 28 as described below. Eight days after the second allostimulation the cells can be used for compound screening or frozen for future use. For compound testing, large quantities of Th1 and Th2 cells derived from a given donor (NYTh1 and NYTh2) were expanded and frozen as aliquots in liquid nitrogen. The cells are thawed and cultured as and when needed. The thawed cells are stimulated with alloantigen/PHA combination. The cells are used for compound screening after 8-10 days in culture.
Re-stimulation by allogeneic cells: Human PBMCs, to be used as alloantigens, are isolated from freshly drawn blood by Ficoll separation. […] Cells are counted and diluted to a final concentration of 2 x 10^6/ml in medium containing 10 µg/ml PHA and 200 units/ml IL-2.
Ninetysix well Falcon tissue culture plates (Fisher Scientific) are coated with 100 microliters per well of 10 µg/ml anti-CD3 (PharMingen) antibody in phosphate buffered saline (PBS) and stored at 4°C one day before the experiment.
On the day of assay, anti-CD3 antibody coated plates are washed with PBS once to remove all soluble anti-CD3 antibody. […] All compounds and controls are assayed in triplicates.

Assay [1] relates to sheep allergic to Ascaris suum. Nature of the assay: Sheep asthma model (Ascaris suum antigen challenge). It counts as in vivo. How it is done:
Briefly, transpulmonary pressure, pulmonary resistance (RL), specific lung resistance (SRL airway hyperreactivity, airway responsiveness, are determined.
Venous blood samples (-5 ml) are obtained from a peripheral leg vein or the jugular vein for pharmacokinetic data. Measurement of Airway Mechanics: The unsedated sheep are restrained in a cart in the prone position with their heads immobilized. After topical anesthesia of the nasal passages with 2% lidocaine solution, a balloon catheter is advanced through one nostril into the lower esophagus. The animals are […] with a cuffed endotracheal tube through the other nostril using a flexible fiberoptic bronchoscope as a guide. (The cuff of the endotracheal tube is inflated only for the measurement of airway mechanics and during aerosol challenges to prevent undue discomfort. This procedure has no effect on airway mechanics). Pleural pressure is estimated with the esophageal balloon catheter (filled with one ml of air) which is positioned 5-10 cm from the gastroesophageal junction. In this position the end expiratory pleural pressure ranges between -2 and -5 cm H20. […] Lateral pressure in the trachea is measured with a sidehole catheter (inner dimension, 2.5 mm) advanced through and positioned distal to the tip of the endotracheal tube. Transpulmonary pressure, the difference between tracheal and pleural pressure, is measured with a differential pressure transducer catheter system. […] The signals of flow and transpulmonary pressure is recorded on an oscilloscope recorder which is linked to a computer for on-line calculation of RL from transpulmonary pressure, respiratory volume (obtained by digital integration) and flow. […] Immediately after the measurement of RL, thoracic gas volume (Vtg) is measured in a constant volume body plethysmograph to obtain specific lung resistance (SRL = RL . Vtg) in L x cm H20/LPS. […] To assess airway responsiveness, the cumulative carbachol dose in breath units (BU) that increases SRL 400% over the post-buffer value (i.e. PC400) is calculated from the dose response curve. […]

Where [2] appears, read: 3 mg/kg aerosol 30 min before antigen challenge, 2 sheep per group, FIG. 3A.

With `O=C(O)c1[nH]c2ccccc2c1Nc1ccncc1` [Example 28, 3-(4-Pyridinylamino)-1H-indole-2-carboxylic acid], in the assay with IL-13 (Homo sapiens, 0.01 µM, 48 hr, read-out: IL-13 (% control) mean), the activity at 0.01 µM turned out to be 91%. In addition, the activity at 0.03 µM with IL-13 (Homo sapiens, 0.03 µM, 48 hr, read-out: IL-13 (% control) mean) worked out at 86.4%. Besides, in the assay on IL-13 (Homo sapiens, 0.1 µM, 48 hr, read-out: IL-13 (% control) mean), the activity at 0.1 µM is 82.3%. In addition, the activity at 0.3 µM in the assay with IL-13 (Homo sapiens, 0.3 µM, 48 hr, read-out: IL-13 (% control) mean) turned out to be 80.6%. In addition, in the assay with IL-13 (Homo sapiens, 1 µM, 48 hr, read-out: IL-13 (% control) mean), the activity at 1 µM was determined as 75.2%. The activity at 3 µM with IL-13 (Homo sapiens, 3 µM, 48 hr, read-out: IL-13 (% control) mean) is 73.4%. Further, the activity at 10 µM in the assay with IL-13 (Homo sapiens, 10 µM, 48 hr, read-out: IL-13 (% control) mean) is 68.4%. For the same compound, the IC50 (as a rule, the concentration that gives 50% inhibition) in the assay with IL-13 (Human primary Th2 cells, combined data from 10 different experiments) is ~10 µM. In addition, in assay [1] (setting [2]), the “acute increase in specific lung resistance (SRL), early bronchial response” value is “did not affect” and the “late bronchial response (SRL)” value is “blocked the late response”. Also, the “post challenge airway responsiveness (PC400 decrease after antigen challenge)” value in assay [1] (3 mg/kg, 2 sheep, FIG. 3B) is listed as “prevented this effect”.
